Results as given in US9963434B2, “N-arylmethyl sulfonamide negative modulators of NR2A” (LUC THERAPEUTICS, priority 2013, dated 2018).
Like-named read-outs stand apart in the source and are kept apart here.

Biological target: NR1/NR2A (Homo sapiens (Human), UniProt Q05586+Q12879)
Experiment: FDSS Ca2+ influx inhibition assay in HEK293 cells expressing NR1/NR2A
Format: cell-based
Details: 3 μM glutamate, 3 μM glycine, 1 mM Ca2+
Procedure, shortened: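 Fluo-8-loaded HEK293 NR1/NR2A cells preincubated 10 min with compound at 10 μM final (0.1% DMSO) in Ca2+/Mg2+-free HBSS with 20 mM HEPES. Stimulated with 3 μM glutamate, 3 μM glycine, 1 mM Ca2+; FDSS recording for 3 min, end/baseline fluorescence ratio compared with MK801.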

[1] = inhibition relative to MK801, read-out: NR2A IC50

NR1/NR2A, sequence (Q12879 23-1464, other chains not shown): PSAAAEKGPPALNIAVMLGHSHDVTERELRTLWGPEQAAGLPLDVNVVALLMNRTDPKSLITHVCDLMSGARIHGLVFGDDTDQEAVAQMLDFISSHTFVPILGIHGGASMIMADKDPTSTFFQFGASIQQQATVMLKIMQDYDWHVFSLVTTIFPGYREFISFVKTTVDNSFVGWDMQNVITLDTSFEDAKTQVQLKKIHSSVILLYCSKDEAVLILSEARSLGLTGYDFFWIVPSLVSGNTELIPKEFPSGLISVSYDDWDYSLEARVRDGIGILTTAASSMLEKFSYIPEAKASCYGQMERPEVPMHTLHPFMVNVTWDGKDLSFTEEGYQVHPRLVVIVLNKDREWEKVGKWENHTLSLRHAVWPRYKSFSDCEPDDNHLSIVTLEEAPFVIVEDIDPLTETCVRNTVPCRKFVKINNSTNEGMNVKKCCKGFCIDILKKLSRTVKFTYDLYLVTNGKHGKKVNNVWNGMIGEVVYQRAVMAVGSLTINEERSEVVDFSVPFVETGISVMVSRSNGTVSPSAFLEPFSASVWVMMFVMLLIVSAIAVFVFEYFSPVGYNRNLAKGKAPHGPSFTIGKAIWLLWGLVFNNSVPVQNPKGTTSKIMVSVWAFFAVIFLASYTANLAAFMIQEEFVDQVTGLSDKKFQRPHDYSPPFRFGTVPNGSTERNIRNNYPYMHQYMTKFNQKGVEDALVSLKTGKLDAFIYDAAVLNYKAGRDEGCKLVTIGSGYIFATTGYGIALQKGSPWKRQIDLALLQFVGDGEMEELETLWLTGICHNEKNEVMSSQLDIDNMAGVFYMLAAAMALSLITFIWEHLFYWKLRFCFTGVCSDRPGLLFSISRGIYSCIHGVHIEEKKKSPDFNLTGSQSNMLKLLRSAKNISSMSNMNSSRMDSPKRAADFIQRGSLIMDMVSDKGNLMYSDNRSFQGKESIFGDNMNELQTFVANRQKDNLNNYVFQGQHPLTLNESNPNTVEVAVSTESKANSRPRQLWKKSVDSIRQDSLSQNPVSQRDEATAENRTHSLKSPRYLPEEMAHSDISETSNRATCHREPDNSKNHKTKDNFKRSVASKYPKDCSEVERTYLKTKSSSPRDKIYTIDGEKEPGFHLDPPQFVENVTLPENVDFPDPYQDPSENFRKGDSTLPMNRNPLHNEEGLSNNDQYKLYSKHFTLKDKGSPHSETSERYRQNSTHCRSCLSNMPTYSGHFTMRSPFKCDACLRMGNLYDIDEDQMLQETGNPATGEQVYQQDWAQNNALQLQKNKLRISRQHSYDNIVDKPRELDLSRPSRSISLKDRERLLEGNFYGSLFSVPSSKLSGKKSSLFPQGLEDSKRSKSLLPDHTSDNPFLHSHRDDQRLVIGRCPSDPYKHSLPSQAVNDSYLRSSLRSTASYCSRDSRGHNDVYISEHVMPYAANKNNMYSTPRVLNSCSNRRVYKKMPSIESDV

SMILES | IC50 [1] | IC50 (read-out: Binned Activity)
Cc1ncc(CNC(=O)c2ccc(CNS(=O)(=O)c3csc4ccccc34)cn2)s1 [5-(1-benzothiophene-3-sulfonamidomethyl)-N-[(2-methyl-1,3-thiazol-5-yl)methyl]pyridine-2-carboxamide] | 10 µM | > 10 µM
O=C(NCc1ccncn1)c1ccc(CNS(=O)(=O)c2ccc(F)c(Cl)c2)cn1 [5-(3-chloro-4-fluorobenzenesulfon-amidomethyl)-N-(pyrimidin-4-ylmethyl)pyridine-2-carboxamide] | 10 µM | > 10 µM
O=C(NCc1cocn1)c1cnc(CNS(=O)(=O)c2ccc(F)c(Cl)c2)cn1 [5-(3-chloro-4-fluorobenzenesulfon-amidomethyl)-N-(1,3-oxazol-4-ylmethyl)pyrazine-2-carboxamide] | 10 µM | > 10 µM
Cc1ncc(CNC(=O)c2cnc(CNS(=O)(=O)c3cc4ccccc4s3)cn2)s1 [5-(1-benzothiophene-2-sulfonamidomethyl)-N-[(2-methyl-1,3-thiazol-5-yl)methyl]pyrazine-2-carboxamide] | 10 µM | > 10 µM
O=C(NCc1cccnc1)c1ncc(CNS(=O)(=O)c2ccc(F)c(Cl)c2)cn1 [5-(3-chloro-4-fluorobenzenesulfon-amidomethyl)-N-(pyridin-3-ylmethyl)pyrimidine-2-carboxamide] | 10 µM | > 10 µM
Cc1ncc(CNC(=O)c2ccc(CNS(=O)(=O)c3cccc4nsnc34)cn2)s1 [5-(2,1,3-benzothiadiazole-4-sulfonamidomethyl)-N-[(2-methyl-1,3-thiazol-5-yl)methyl]pyridine-2-carboxamide] | 10 µM | > 10 µM
Cc1ncc(CNC(=O)c2cnc(CNS(=O)(=O)c3ccc(F)c(F)c3)cn2)s1 [5-(3,4-difluorobenzenesulfon-amidomethyl)-N-[(2-methyl-1,3-thiazol-5-yl)methyl]pyrazine-2-carboxamide] | – | 0.1 to 1 µM

More lines, now with the values ahead:

IC50 [1] | IC50 (read-out: Binned Activity) | SMILES
10 µM | > 10 µM | Cc1ncc(CNC(=O)c2cnc(CNC(=O)c3cc(F)cc(F)c3)cn2)s1 [5-{[(3,5-difluorophenyl)form-amido]methyl}-N-[(2-methyl-1,3-thiazol-5-yl)methyl]pyrazine-2-carboxamide]
10 µM | > 10 µM | Cn1cnc(CNC(=O)c2ccc(CNS(=O)(=O)c3ccc(F)c(Cl)c3)nc2)c1 [6-(3-chloro-4-fluorobenzenesulfon-amidomethyl)-N-[(1-methyl-1H-imidazol-4-yl)methyl]pyridine-3-carboxamide]
10 µM | > 10 µM | Cc1ncc(CNC(=O)c2ccc(CNS(=O)(=O)c3ccoc3)cn2)s1 [5-(furan-3-sulfonamidomethyl)-N-[(2-methyl-1,3-thiazol-5-yl)methyl]pyridine-2-carboxamide]
– | 0.1 to 1 µM | Cc1ncc(CNC(=O)c2ccc(CNS(=O)(=O)c3ccc(F)c(Cl)c3)cn2)s1 [5-(3-chloro-4-fluorobenzenesulfon-amidomethyl)-N-[(2-methyl-1,3-thiazol-5-yl)methyl]pyridine-2-carboxamide]
10 µM | > 10 µM | Cc1ncc(CNC(=O)c2ccc(CNC(=O)c3ccc(Cl)cc3Cl)cn2)s1 [5-{[(2,4-dichlorophenyl)form-amido]methyl}-N-[(2-methyl-1,3-thiazol-5-yl)methyl]pyridine-2-carboxamide]
– | 1 to 10 µM | CC(NC(=O)c1ccc(CNS(=O)(=O)c2ccc(F)c(Cl)c2)cn1)c1ccco1 (centres unmarked) [5-(3-chloro-4-fluorobenzenesulfon-amidomethyl)-N-[1-(furan-2-yl)ethyl]pyridine-2-carboxamide]
10 µM | > 10 µM | O=C(NCc1nccs1)c1ccc(CNS(=O)(=O)c2ccc(F)c(Cl)c2)nc1 [6-(3-chloro-4-fluorobenzenesulfon-amidomethyl)-N-(1,3-thiazol-2-ylmethyl)pyridine-3-carboxamide]
10 µM | > 10 µM | CN(C)CCCNC(=O)c1ccc(CNS(=O)(=O)c2ccc(F)c(Cl)c2)cn1 [5-(3-chloro-4-fluorobenzenesulfon-amidomethyl)-N-[3-(dimethylamino)propyl] pyridine-2-carboxamide]
– | < 0.1 µM | Cc1ncc(CNC(=O)c2cnc(CNS(=O)(=O)c3cccc(Cl)c3)c(C)n2)s1 [5-(3-chlorobenzenesulfon-midomethyl)-6-methyl-N-[(2-methyl-1,3-thiazol-5-yl)methyl]pyrazine-2-carboxamide]
– | 1 to 10 µM | Cn1cccc1CNC(=O)c1ccc(CNS(=O)(=O)c2ccc(F)c(Cl)c2)cn1 [5-(3-chloro-4-fluorobenzenesulfon-amidomethyl)-N-[(1-methyl-1H-pyrrol-2-yl)methyl]pyridine-2-carboxamide]
